“And” between values parts separate entries of the source, which are not always exact repeats. Equal entries are not always repeated. Where two headings read alike, the source gives them in different places.
Tests used:
SK-MEL-5 = test: NCI-60 DTP Human Tumor Cell Line Screen; type: cell-based; settings: SK-MEL-5, Melanoma, 48 h
EKVX = test: NCI-60 DTP Human Tumor Cell Line Screen; type: cell-based; settings: Non-Small Cell Lung Cancer, 48 h
DU145 = test: NCI-60 DTP Human Tumor Cell Line Screen; type: cell-based; settings: DU145, Prostate Cancer, 48 h
SN12C = test: NCI-60 DTP Human Tumor Cell Line Screen; type: cell-based; settings: Renal Cancer, 48 h
SNB-19 = test: NCI-60 DTP Human Tumor Cell Line Screen; type: cell-based; settings: SNB-19, CNS Cancer, 48 h
HUVEC = test: Sprouting assay on dextran beads (anti-angiogenic activity); type: cell-based
Description: This assay is an unpublished variation of the assay described (Microvascular Research 2003, 66, 102-112) performed by the Hans Hammers Lab at Johns Hopkins University. The assay described in the above reference is described below.
HUVEC were mixed with dextran-coated Cytodex 3 microcarriers (Amersham Pharmacia Biotech, Piscataway, N.J.) at a concentration of 400 HUVEC per bead in 1 ml of EGM-2 medium (Clonetics, Walkersville, Md.). Beads with cells were shaken gently every 20 min for 4 h at 37° C. and 5% CO2. After incubating, beads with cells were transferred to a 25-cm^2 tissue culture flask (BD Biosciences, Bedford, Mass.) and left for 12-16 h in 5 ml of EGM-2 at 37° C. and 5% CO2. The following day, beads with cells were washed three times with 1 ml of EGM-2 and resuspended at a concentration of 200 cell-coated beads/ml in 2.5 mg/ml of fibrinogen (Sigma, St. Louis, Mo.) with or without 0.15 units/ml of aprotinin (Sigma) at a pH of 7.4. Five hundred microliters of fibrinogen/bead solution was added to 0.625 units of thrombin (Sigma) in one well of a 24-well tissue culture plate. […] Bead assays were monitored for 7 days. […]

SF-295 = test: NCI-60 DTP Human Tumor Cell Line Screen; type: cell-based; settings: SF-295, CNS Cancer, 48 h
[1] = In vivo tolerance study, I.V. dosing (tail vein); parameters: species or system Balb/c mice
Description: Ten Balb/c mice were split into three groups: untreated, vehicle and clodronate prodrug. Untreated mice received no treatment or injection. The vehicle was 100 μL 10% cremaphor in ddH20 injected into the tale vein. 100 μL of 3 mM Clodronate Prodrug dissolved in 10% cremaphor in ddH20. (100 μL of 3 mM is about 14 mg/kg).

UACC-62 = test: NCI-60 DTP Human Tumor Cell Line Screen; type: cell-based; settings: UACC-62, Melanoma, 48 h
A549 NSCLC cells = test: MTS cell proliferation assay, A549; type: cell-based; settings: for IC50: A549, MTS, read-out: IC50 (decreased cell proliferation by 50% compared to control)
Description: Cell proliferation was determined using the CellTiter 96 Aqueous One Solution Cell Proliferation Assay MTS assay. A549 NSCLC cells were plated at 1.5×10^3 cells per well in flat bottom 96 well plates in 99 μL of media and allowed to adhere overnight. The drugs were serially diluted in 100% DMSO. For each drug treatment group, 1 μL of a 100× stock solution was added to each well for a final DMSO concentration of 1%. Cells were treated for 24, 48 or 72 hours. Cells were incubated with MTS dye (20 μL well^−1) for 40 min to 2 h. Absorbance at 490 nm was determined using a SpectraMax M2 (Molecular Devices) plate reader. The percent cell proliferation was calculated by converting the experimental absorbance to percentage of control, which was then plotted vs. drug concentration. The IC50 values were determined using a non-linear dose-response analysis in GraphPad Prism version 4.0. The IC50 is defined as the concentration of drug needed to cause a 50% decrease in proliferation compared to vehicle control. […]

Structure (SMILES): CN(CCCCCl)P(=O)(OCc1ccc([N+](=O)[O-])cc1)C(Cl)(Cl)P(=O)(OCc1ccc([N+](=O)[O-])cc1)N(C)CCCCCl (stereo not drawn) [compound 14]
- Log10GI50 (SK-MEL-5): −5.69
- Log10LC50 (SK-MEL-5): −5.05
- Log10TGI (SK-MEL-5): −5.37
- Log10GI50 (EKVX): −5.50
- Log10LC50 (EKVX): >−4.00
- Log10TGI (EKVX): >−4.00
- Log10GI50 (DU145): −5.40
- Log10LC50 (DU145): >−4.00
- Log10TGI (DU145): >−4.00
- Log10GI50 (SN12C): −5.42
- Log10LC50 (SN12C): >−4.00
- Log10TGI (SN12C): >−4.00
- Log10GI50 (SNB-19): −5.30
- Log10LC50 (SNB-19): >−4.00
- Log10TGI (SNB-19): >−4.00
- sprouting (HUVEC; 6 μM): sprouting was delayed for the first few days
- sprouting (HUVEC; 10 μM): sprouting is inhibited
- Log10GI50 (SF-295): −5.61
- Log10LC50 (SF-295): >−4.00
- Log10TGI (SF-295): −4.77
- Mouse weight ([1]; Mar. 21, 2011, i.v. 100 μL of 3 mM (about 14 mg/kg), individual mice, listed as cloprodrug): 15.9 g and 14.5 g and 15.6 g
- Δ in weight ([1]; Mar. 21 to Mar. 28, 2011, i.v. about 14 mg/kg, individual mice, listed as cloprodrug): 2.2 g and 2.7 g and 0.6 g
- Mouse weight ([1]; Mar. 23, 2011, i.v. about 14 mg/kg, individual mice, listed as cloprodrug): 17.6 g and 16.4 g and 16.2 g
- Mouse weight ([1]; Mar. 25, 2011, i.v. about 14 mg/kg, individual mice, listed as cloprodrug): 18.2 g and 16.8 g and 16.4 g
- Mouse weight ([1]; Mar. 28, 2011, i.v. about 14 mg/kg, individual mice, listed as cloprodrug): 18.1 g and 17.2 g and 16.2 g
- behavior ([1]; i.v. about 14 mg/kg): no unusual behavior observed
- difference in weight between the three treatment groups ([1]; i.v. about 14 mg/kg vs vehicle and untreated): no significant difference in weight
- Log10GI50 (UACC-62): −5.70
- Log10LC50 (UACC-62): −4.11
- Log10TGI (UACC-62): −5.30
- growth inhibitory effect on A549 cells (A549 NSCLC cells; 48 and 72 h): complete growth inhibition
- growth inhibitory effect on A549 cells (A549 NSCLC cells; 24 h): partial growth inhibitory effect
- EC50 (A549 NSCLC cells; A549 (NSCLC), MTS, table of Example 3): 8 µM
- IC50 (A549 NSCLC cells; 24 h): 7.6 ± 3 µM
- IC50 (A549 NSCLC cells; 48 h): 5.2 ± 1 µM
- IC50 (A549 NSCLC cells; 72 h): 4.4 ± 2 µM

— patent US8772268B2, “Bisphosphonamidate prodrugs and uses thereof” (The Johns Hopkins University, priority 2010, dated 2014)
